This note sets out measurements from PMC12750388, “Coumarin-1,2,3-Triazole Conjugates as Molecular Scaffolds for the Selective Induction of ROS-Driven Apoptosis in Cancer Cells in the Development of Pyruvate Kinase M2 Inhibitors” (ACS Omega, 2025).

One series relates to SCC-9 cell line. Kind of series: MTT cell viability assay, SCC-9. It counts as cell-based, human. As to conditions: for IC50: MTT, 48 h; for SI SCC-9: IC50 human gingival fibroblast / IC50 SCC-9. The protocol:
(§1) The viability of SCC cell lines and primary human fibroblast cells was evaluated using the MTT assay to determine half maximal inhibitory concentration (IC50). Briefly, cells were grown in triplicate in 96-well plates (5 × 10^3 cells/well) until confluence. Then the medium was removed, fresh medium was added, and the cells were returned to the incubator in the presence of different compounds. DMSO at the same concentrations was used as a 100% cell viability control. After 48 h, cells were incubated with 5 mg/mL MTT reagent (3-(4,5-dimethyl-2-thiazolyl)-2,5-diphenyl-2-H-tetrazolium bromide) (Sigma-Aldrich Co., St. Louis, MO, USA) for 3.5 h. After that, formazan crystals were dissolved in MTT solvent solution (DMSO/methanol 1:1 v/v), and the absorbance at 560 nm was evaluated using an EPOCH microplate spectrophotometer (BioTek Instruments, Winooski, VT, USA) with the background absorbance at 670 nm subtracted. Each of the 12 compounds (7a–7l) was tested at six different concentrations, ranging from 6.25 to 200 μM in cancer and normal cell lines. Control (carboplatin) was tested at six different concentrations ranging from 25 μM to 800 μM in cancer cells and from 50 μM to 1600 μM in normal cells.
(§2) Half-maximal inhibitory concentration (IC50) values were obtained from the MTT assay of at least three independent replicates through nonlinear regression analysis using GraphPad Prism 5.0 software (Intuitive Software for Science, San Diego, CA, USA). Data were presented as means ± standard deviation (SD). A log dose–response curve (inhibitor vs response) using the least-squares method was used to determine the IC50 and SD from the data. The selectivity index (SI) was calculated as the ratio between the IC50 in normal cells and the IC50 in cancer cells, obtained by dividing the IC50 of normal cells by the IC50 of cancer cells.

A further series has as its system SCC-9 cells. Briefly: MTT cell viability with N-acetyl-L-cysteine pretreatment. The class given is cell-based, human. Conditions: SCC-9, 48 h; 7f 1 × IC50, menadione 20 μM. Here is the method: The production of reactive oxygen species (ROS) was assessed by the detection of hydrogen peroxide (H2O2) using the ROS-Glo H2O2 assay kit (Promega Corporation, Madison, WI, USA; G8820). […] A plate with wells without cells was used as a control. Cells and cell-free wells remained in treatment at times of interest, and 2 h before completion of the times, well volumes were removed to reduce to 40 μL per well. Then the positive control of menadione (Sigma-Aldrich Co., St. Louis, MO, USA), a polycyclic aromatic ketone based on 1,4-naphthoquinone, was used to treat its respective well, and H2O2 substrate from the kit was added for all treatments, followed by the incubation of the plate for the remaining 2 h. Then the detection solution was added, and the plates remained at room temperature for 20 min, following the reading in the TD 20/20 luminometer (Turner Designs, Sunnyvale, CA, USA). The reading of bioluminescence detected is indicated as arbitrary units (a.u.). Additionally, the cell viability was assessed through pretreatment of cells with 10 mM N-acetyl-L-cysteine (NAC) (Sigma-Aldrich Co., St. Louis, MO, USA) for 2 h. […] At the end of the time, the MTT cell viability assay was performed.

The test system of another series is SCC-4. Kind of series: MTT cell viability assay, SCC-4. As to conditions: for IC50: MTT, 48 h; for SI SCC-4: IC50 human gingival fibroblast / IC50 SCC-4. It counts as cell-based, human. The protocol: as §1, §2
A further series relates to SCC-25. Kind of series: MTT cell viability assay, SCC-25. Conditions: for IC50: MTT, 48 h; for SI SCC-25: IC50 human gingival fibroblast / IC50 SCC-25. It counts as cell-based, human. The protocol: as §1, §2
Series [1] has as its system Primary Gingival Fibroblast. Kind of series: MTT cell viability assay, normal cells. It counts as cell-based, human. As to conditions: for IC50: MTT, 48 h, normal cells; for Average SI: average of SI for SCC-9, SCC-4 and SCC-25 versus gingival fibroblast. Here is the method:
as §1, §2

The next series deals with erythrocytes. Briefly: Hemolysis assay. It counts as cell-based. As to conditions: human erythrocytes, 300 μM. Here is the method: A hemolysis assay to evaluate surfactant effects of tested substances was performed using human blood approved by the Research Ethics Committee of Universidade Federal Fluminense (CAAE: 43134721.4.0000.5626). Erythrocytes are isolated upon three repeated centrifugation cycles at 1500 rpm for 15 min. Between each cycle of centrifugation, supernatant was removed, and a pH 7.5 PBS (phosphate-buffered saline) solution supplemented with 10 mM glucose was added to remove lysed erythrocytes. The number of cells was determined in an Automatic Cell Counter (Thermo Fisher, Waltham, MA, USA). Erythrocytes were then plated in 96-well plates at a concentration of 4 × 10^8 cells/well in triplicates, and 10 μL of compounds were added at a final concentration of 300 μM in PBS with glucose (final volume 100 μL). Ten μL of PBS was used as a negative control, and 10 μL of PBS with 0.1% Triton X-100 was used as a positive control. Data reading was performed with EPOCH (BioTek Instruments, Winooski, VT, USA) at an absorbance of 540 nm.

Take `O=C1C=C(NCc2cn(CCOc3cc(=O)oc4ccccc34)nn2)C(=O)c2ccccc21` [Compound 7a, 2-(((1-(2-((2-Oxo-2H-chromen-4-yl)oxy)ethyl)-1H-1,2,3-triazol-4-yl)methyl)amino) naphthalene-1,4-dione]: the half-inhibitory concentration (IC50) in the series on SCC-9 cell line (Homo sapiens, SCC-9) is > 200 µM.

Consider `CC1=CC(=O)c2ccccc2C1=O` [menadione, reference compound], for which the “cell viability in the presence of 10 mM N-acetyl-L-cysteine (NAC)” value in the series with SCC-9 cells is “NAC protected cell death”.

Regarding `CCCCCCc1cn(CCOc2cc(=O)oc3ccccc23)nn1` [Compound 7j, 4-(2-(4-Hexyl-1H-1,2,3-triazol-1-yl)ethoxy)-2H-chromen-2-one], the IC50 in the series on SCC-9 cell line (Homo sapiens, SCC-9) was > 200 µM.

With `CC(C)=CC1=C(OCc2cn(CCOc3cc(=O)oc4ccccc34)nn2)C(=O)c2ccccc2C1=O` [Compound 7c, 2-(2-Methylprop-1-en-1-yl)-3-((1-(2-((2-oxo-2H-chromen-4-yl)oxy)ethyl)-1H-1,2,3-triazol-4-yl)methoxy)naphthalene-1,4-dione], the IC50 was determined as 28.9 µM with SCC-9 cell line (Homo sapiens, SCC-9); 17 µM in the series on SCC-4 (Homo sapiens, SCC-4); 28.5 µM with SCC-25 (Homo sapiens, SCC-25); 30.9 µM in series [1] (Homo sapiens, Fibroblast). Besides, the “SI SCC-9” value with SCC-9 cell line is recorded as 1.07. Further, the “SI SCC-4” value in the series on SCC-4 worked out at 1.82. Moreover, the “SI SCC-25” value with SCC-25 came to 1.08. Besides, in series [1], the “Average SI” value turned out to be 1.32.

Take `O=c1cc(OCCCn2cc(COc3cc(=O)oc4ccccc34)nn2)c2ccccc2o1` [Compound 7g, 4-(3-(4-(((2-Oxo-2H-chromen-4-yl)oxy)methyl)-1H-1,2,3-triazol-1-yl)propoxy)-2H-chromen-2-one]: in the series with SCC-9 cell line (Homo sapiens, SCC-9), the IC50 was > 150 µM.

For the compound `O=C1C=C(OCc2cn(CCOc3cc(=O)oc4ccccc34)nn2)C(=O)c2ccccc21` [Compound 7b, 2-((1-(2-((2-Oxo-2H-chromen-4-yl)oxy)ethyl)-1H-1,2,3-triazol-4-yl)methoxy) naphthalene-1,4-dione], the half-maximal inhibitory concentration (IC50) in the series on SCC-9 cell line (Homo sapiens, SCC-9) was > 200 µM.

On to `CC(=O)OCc1cn(CCCOc2cc(=O)oc3ccccc23)nn1` [Compound 7h, (1-(3-((2-Oxo-2H-chromen-4-yl)oxy)propyl)-1H-1,2,3-triazol-4-yl)methyl acetate], for which the IC50 with SCC-9 cell line (Homo sapiens, SCC-9) was > 200 µM.

Turning to `O=c1cc(OCCn2cc(-c3ccccc3)nn2)c2ccccc2o1` [Compound 7i, 4-(2-(4-Phenyl-1H-1,2,3-triazol-1-yl)ethoxy)-2H-chromen-2-one], the IC50 in the series on SCC-9 cell line (Homo sapiens, SCC-9) was > 200 µM.

As to `CC(C)=CCC1=C(OCc2cn(CCOc3cc(=O)oc4ccccc34)nn2)C(=O)c2ccccc2C1=O` [Compound 7d, 2-(3-Methylbut-2-en-1-yl)-3-((1-(2-((2-oxo-2H-chromen-4-yl)oxy)ethyl)-1H-1,2,3-triazol-4-yl)methoxy)naphthalene-1,4-dione], in the series with SCC-9 cell line (Homo sapiens, SCC-9), the IC50 is > 150 µM.

As to `O=C1C=C(NCc2cn(CCCOc3cc(=O)oc4ccccc34)nn2)C(=O)c2ccccc21` [Compound 7e, 2-(((1-(3-((2-Oxo-2H-chromen-4-yl)oxy)propyl)-1H-1,2,3-triazol-4-yl)methyl)amino) naphthalene-1,4-dione], the IC50 with SCC-9 cell line (Homo sapiens, SCC-9) was > 150 µM.

Regarding `CCCCCCc1cn(CCCOc2cc(=O)oc3ccccc23)nn1` [Compound 7l, 4-(3-(4-Hexyl-1H-1,2,3-triazol-1-yl)propoxy)-2H-chromen-2-one], the IC50 with SCC-9 cell line (Homo sapiens, SCC-9) is > 150 µM.

Regarding `N.N.O=C([O-])C1(C(=O)[O-])CCC1.[Pt+2]` [Carboplatin, reference compound], in the series with SCC-9 cell line, the “SI SCC-9” value turned out to be 2.31 and the IC50 worked out at 150 µM. Moreover, in the series on SCC-4, the “SI SCC-4” value is on record as 2.45 and the IC50 was 142 µM. In the series on SCC-25, the “SI SCC-25” value is 1.40 and the concentration for half-maximal inhibition (IC50) is 249 µM. Besides, in series [1], the IC50 was found to be 348 µM and the “Average SI” value is recorded as 2.05. Besides, the “hemolytic activity / membrane integrity” value with erythrocytes was “neither carboplatin nor PBS affected the membrane integrity”.
